The results in this text go back to ChEMBL document CHEMBL3813607, “New antitumour agents with α,β-unsaturated δ-lactone scaffold: Synthesis and antiproliferative activity of (-)-cleistenolide and analogues” (Bioorg Med Chem Lett, 2016).

The nature of test [1]: Cytotoxicity against human HL60 cells assessed as cell growth inhibition after 72 hrs by MTT assay. Type of test: functional, cell-based. Conditions: HL-60, 72 h.
Another test has as its system Jurkat. Description: Cytotoxicity against human Jurkat cells assessed as cell growth inhibition after 72 hrs by MTT assay. Type of test: functional, cell-based. (In general: Tetrazolium assays rely on reduction of a dye to a coloured formazan, in cell work by metabolically active cells.)
In the next test the test system is HeLa. Description: Cytotoxicity against human HeLa cells assessed as cell growth inhibition after 72 hrs by MTT assay. Type of test: functional, cell-based.
A further test has as its system MRC5. Briefly: Cytotoxicity against human MRC5 cells assessed as cell growth inhibition after 72 hrs by MTT assay. Type of test: functional, cell-based. Conditions: MRC5, 72 h.
A further test concerns K562. Briefly: Cytotoxicity against human K562 cells assessed as cell growth inhibition after 72 hrs by MTT assay. Conditions: K562, 72 h. Type of test: functional, cell-based.
Test [2] relates to MDA-MB-231. Briefly: Cytotoxicity against human MDA-MB-231 cells assessed as cell growth inhibition after 72 hrs by MTT assay. Type of test: functional, cell-based. The note with it: MDA-MB-231, 72 h.
Test [3] deals with A549. Description: Potency index, ratio of Doxorubicin IC50 to ratio of compound IC50 for human A549 cells. Type of test: functional.
Another test has as its system Raji. Description: Cytotoxicity against human Raji cells assessed as cell growth inhibition after 72 hrs by MTT assay. Type of test: functional, cell-based.
The subject of test [4] is A549. Briefly: Cytotoxicity against human A549 cells assessed as cell growth inhibition after 72 hrs by MTT assay. Type of test: functional, cell-based. Conditions: A549, 72 h.
Another test relates to MCF7. Briefly: Cytotoxicity against human MCF7 cells assessed as cell growth inhibition after 72 hrs by MTT assay. Type of test: functional, cell-based. The note with it: MCF7, 72 h.
The test system of test [5] is MDA-MB-231. Briefly: Potency index, ratio of Doxorubicin IC50 to ratio of compound IC50 for human MDA-MB-231 cells. Type of test: functional.

By IC50 is commonly meant the midpoint of a concentration-inhibition curve. Consider `CC(=O)O[C@@H]1C=CC(=O)O[C@@H]1[C@@H](COC(=O)/C=C/c1ccccc1)OC(C)=O`, for which the IC50 in test [1] was 24.6 µM; with Jurkat it was 0.25 µM; with HeLa, 0.21 µM; in the test on MRC5, greater than 100 µM; with K562, 0.28 µM; in the test on MDA-MB-231 [2], 1.46 µM. The IC50 in the test on Raji worked out at 11.2 µM; in the test with A549 [4], 2.02 µM; in the test on MCF7, 16 µM. Also, in the test on A549 [3], the “Ratio IC50” value came out at 2.5.
With `CC(=O)O[C@@H]1C=CC(=O)O[C@@H]1[C@@H](COC(=O)c1ccccc1)OC(C)=O`, the IC50 in test [1] is 1.21 µM; in the test on Jurkat, 14.2 µM; in the test with HeLa, 7.32 µM; with MRC5, greater than 100 µM; in the test with K562, 7.65 µM; in the test on MDA-MB-231 [2] it was 2.25 µM. Further, the IC50 with Raji is 36.9 µM; with A549 [4] it was 16.3 µM; in the test on MCF7, 26.1 µM.
Regarding `CC(=O)O[C@@H]1C=CC(=O)O[C@@H]1[C@@H](COC(=O)c1c(Cl)cc(Cl)cc1Cl)OC(C)=O`, the concentration for half-maximal inhibition (IC50) in [1] is 36.2 µM; in the test on Jurkat it was 6.25 µM; in the test with HeLa it was 14 µM; in the test with MRC5, 45.7 µM; in the test on K562, 1.02 µM; in the test on MDA-MB-231 [2], 0.02 µM. In addition, the IC50 with Raji worked out at 11.2 µM; in the test with A549 [4] it was 4.23 µM; in the test with MCF7 it was 0.62 µM. For the same compound, the “Ratio IC50” value in the test on MDA-MB-231 [5] was 4.5.
For `COc1cccc(C(=O)OC[C@@H](OC(C)=O)[C@H]2OC(=O)C=C[C@H]2OC(C)=O)c1`, the IC50 in test [1] is 0.89 µM; with Jurkat, 8.31 µM; with HeLa, 1.95 µM; in the test on MRC5, 91.3 µM; in the test on K562, 2.69 µM; in the test on MDA-MB-231 [2], 7.46 µM. The IC50 was 25.6 µM with Raji, 11 µM in the test with A549 [4] and 4.71 µM with MCF7.
For `COc1cccc2c1C(=O)c1c(O)c3c(c(O)c1C2=O)C[C@@](O)(C(=O)CO)C[C@@H]3O[C@H]1C[C@H](N)[C@H](O)[C@H](C)O1` [DOXORUBICIN], the IC50 in [1] is 0.92 µM.
